Data on 26 compounds can be found in patent publication US5112846A, “N-hydroxyamide, N-hydroxythioamide, hydroxyurea, and N-hydroxythiourea derivatives of selected nsaids as antiinflammatory agents” (Warner-Lambert Company, priority 1990, dated 1992).

Read-outs that look alike come from different tables or passages of the source.

Test [1] concerns the target T1, 5-Lipoxygenase (Rattus norvegicus, UniProt P12527).
T1 construct: host or cells: RBL-1 rat basophilic leukemia cells
T1 sequence (P12527 1-673): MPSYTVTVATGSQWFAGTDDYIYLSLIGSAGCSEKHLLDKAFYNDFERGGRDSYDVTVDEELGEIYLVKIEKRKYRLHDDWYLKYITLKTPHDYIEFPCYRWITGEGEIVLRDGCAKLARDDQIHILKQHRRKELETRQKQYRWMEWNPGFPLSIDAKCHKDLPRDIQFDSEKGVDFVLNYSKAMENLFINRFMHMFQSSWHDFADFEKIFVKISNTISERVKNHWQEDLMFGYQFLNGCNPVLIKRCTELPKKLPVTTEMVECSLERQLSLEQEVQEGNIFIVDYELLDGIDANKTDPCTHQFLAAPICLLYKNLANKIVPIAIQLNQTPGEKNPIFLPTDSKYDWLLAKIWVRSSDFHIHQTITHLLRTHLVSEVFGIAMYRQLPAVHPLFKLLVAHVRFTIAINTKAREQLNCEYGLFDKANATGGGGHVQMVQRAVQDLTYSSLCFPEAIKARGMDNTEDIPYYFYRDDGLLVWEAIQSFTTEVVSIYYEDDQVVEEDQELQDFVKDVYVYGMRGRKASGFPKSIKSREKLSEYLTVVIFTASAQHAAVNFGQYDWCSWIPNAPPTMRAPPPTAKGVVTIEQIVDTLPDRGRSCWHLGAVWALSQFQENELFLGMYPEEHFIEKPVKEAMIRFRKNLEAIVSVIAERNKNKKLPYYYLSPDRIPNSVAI
Kind of test: ARBL whole cell 5-lipoxygenase assay (LTB4 formation in RBL-1 cells, A23187 stimulated). The class given is cell-based. To be noted: for IC50: read-out: ARBL IC50 (inhibition of LTB4 formation). Here is the method: (§1) ARBL/ARBC Whole Cell 5-Lipoxygenase and Cyclooxygenase Assays
(§2) The rat basophilic leukemia cell line (RBL-1) was obtained from the American Type Culture Collection (Rockville, MD).
(§3) Radioimmunoassay (RIA) kits of LTB4 and PGF2α were obtained from Amersham (Arlington Heights, IL) and Seragen (Boston, MA), respectively.
(§4) RBL-1 cells are grown in suspension culture in Eagle's minimum essential medium supplemented with 12% fetal bovine serum at 37° C. in an incubator supplied with air-5% carbon dioxide. Cells are harvested by centrifugation. They are washed with cold phosphate buffered saline pH 7.4 (PBS; NaCl, 7.1 g; Na2 HPO4, 1.15 g; KH2 PO4, 0.2 g; and KCl, 0.2 g/l). Cells are finally suspended in PBS containing 1.0 mM calcium at a density of 2×10^6 cells/ml. Cells are incubated with and without test agent (in DMSO) (1% DMSO is without effect on arachidonic acid metabolism) for ten minutes at room temperature. Calcium ionophore A23187 (5 μM) is added and cells are incubated for seven minutes at 37° C. The reaction is stopped by chilling the tubes on ice for ten minutes. Cells are separated by centrifugation and the supernatant is stored at -20° C. Aliquots (100 μl) are analyzed for LTB4 and PGF2α using radioimmunoassay kits as provided by the supplier.
(§5) Tables 1-4 contain biochemical data obtained from this whole cell assay either as IC50 s which are calculated as the amount of test compound causing 50% inhibition of LTB4 or PGF2α formation or % inhibition of LTB4 or PGF2α at the indicated amount expressed as μM.

Test [2] concerns the target T2, Cyclooxygenase (Rattus norvegicus, UniProt Q63921).
T2 construct: host or cells: RBL-1 rat basophilic leukemia cells
T2 sequence (Q63921 27-602): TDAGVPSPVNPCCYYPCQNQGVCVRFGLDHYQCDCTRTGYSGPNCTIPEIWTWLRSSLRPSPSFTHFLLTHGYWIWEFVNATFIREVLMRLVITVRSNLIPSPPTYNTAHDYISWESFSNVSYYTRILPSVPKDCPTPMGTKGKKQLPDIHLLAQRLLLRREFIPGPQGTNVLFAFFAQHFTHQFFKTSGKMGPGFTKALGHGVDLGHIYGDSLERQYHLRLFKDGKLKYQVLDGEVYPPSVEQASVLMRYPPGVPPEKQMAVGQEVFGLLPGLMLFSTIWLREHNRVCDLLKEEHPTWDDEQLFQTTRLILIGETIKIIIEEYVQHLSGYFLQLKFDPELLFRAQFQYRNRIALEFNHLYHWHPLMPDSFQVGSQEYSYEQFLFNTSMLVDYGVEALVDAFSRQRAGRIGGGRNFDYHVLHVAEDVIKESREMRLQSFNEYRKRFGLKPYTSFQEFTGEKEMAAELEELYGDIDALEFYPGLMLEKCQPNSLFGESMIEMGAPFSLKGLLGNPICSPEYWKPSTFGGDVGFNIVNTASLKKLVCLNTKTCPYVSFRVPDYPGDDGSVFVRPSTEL
Kind of test: ARBC whole cell cyclooxygenase assay (PGF2α formation in RBL-1 cells, A23187 stimulated). Format: cell-based. As to conditions: for IC50: read-out: ARBC IC50 (inhibition of PGF2α formation). Here is the method: as §1, §2, §3, §4, §5

[3] abbreviates: RBL-1 cells, read-out: ARBL % inhibition of LTB4.
Setting [4] is: RBL-1 cells, read-out: ARBC % inhibition of PGF2α.
Setting [5] is: RBL-1, Table 1, read-out: ARBC % inhibition (N).
Setting [6] is: RBL-1, Table 2, read-out: ARBC % inhibition (N).

One may read the inhibition as the percentage by which the read-out fell short of the control. The IC50 is the concentration at which inhibition is half-maximal.

Consider `ONCc1ccc2c(c1)Cc1ccccc1-2` [Example 1, N-Hydroxy-9H-fluorene-2-methanamine], for which the inhibition at 16 µM in test [1] (setting [3]) amounted to 97%; in test [2] (setting [4]) it was 76%.
With `CCOC(=O)C(=O)N(O)Cc1ccc2c(c1)Cc1ccccc1-2` [Example 2, (9H-Fluoren-2-ylmethyl)hydroxyamino-oxo-acetic acid, ethyl ester], the figures for the inhibition at 16 µM in test [1] (setting [3]) and in test [2] (setting [5]) were 96% and below 40%, respectively.
As to `O=C(O)C(=O)N(O)Cc1ccc2c(c1)Cc1ccccc1-2` [Example 3, (9H-Fluoren-2-ylmethyl)hydroxyamino-oxo-acetic acid], the inhibition at 16 µM is below 40% in test [1] (RBL-1, Table 1, read-out: ARBL % inhibition (N)) and below 40% in test [2] (setting [5]).
Regarding `CC(=O)N(O)Cc1ccc2c(c1)Cc1ccccc1-2` [Example 4, N-(9H-Fluoren-2-ylmethyl)-N-hydroxy-acetamide], in test [1] (setting [3]), the inhibition at 16 µM worked out at 100%. The IC50 in test [2] (RBL-1 cells) amounted to 12000 nM.
As for `CC(C)C(=O)N(O)Cc1ccc2c(c1)Cc1ccccc1-2` [Example 5, N-(9H-Fluoren-2-ylmethyl)-N-hydroxy-2-methyl-propanamide], the inhibition at 16 µM is 99% in test [1] (setting [3]) and below 40% in test [2] (setting [5]).
For `CNC(=O)N(O)Cc1ccc2c(c1)Cc1ccccc1-2` [Example 6, N-(9H-Fluoren-2-ylmethyl)-N-hydroxy-N'-methylurea], in that order: 100% and below 40%.
As for `CC(NO)c1ccc2c(c1)Cc1ccccc1-2` (stereo not drawn) [Example 7, N-Hydroxy-α-methyl-9H-fluorene-2-methanamine], the inhibition at 16 µM worked out at 100% in test [1] (setting [3]) and 89% in test [2] (setting [4]).
Regarding `CNC(=O)N(O)C(C)c1ccc2c(c1)Cc1ccccc1-2` (stereo not drawn) [Example 8, N-(1-(9H-Fluoren-2-yl)ethyl)-N-hydroxy-N'-methylurea], the IC50 in test [1] (RBL-1 cells) is 910 nM. Besides, in test [2] (setting [5]), the inhibition at 16 µM is below 40%.
As for `CCNC(=O)N(O)C(C)c1ccc2c(c1)Cc1ccccc1-2` (stereo not drawn) [Example 9, N'-Ethyl-N-(1-(9H-fluoren-2-yl)ethyl)-N-hydroxyurea], the values for the inhibition at 16 µM in test [1] (setting [3]) and in test [2] (setting [4]) were 100% and 49%, respectively.
Consider `CNC(=S)N(O)C(C)c1ccc2c(c1)Cc1ccccc1-2` (stereo not drawn) [Example 10, N-(1-(9H-Fluoren-2-yl)ethyl)-N-hydroxy-N'-methylthiourea], for which the inhibition at 16 µM in test [1] (setting [3]) worked out at 100%; in test [2] (setting [4]), 59%.
In the case of `CC(=O)N(O)C(C)c1ccc2c(c1)Cc1ccccc1-2` (stereo not drawn) [Example 11, N-(1-(9H-Fluoren-2-yl)ethyl)-N-hydroxy-acetamide], in test [1] (RBL-1 cells), the IC50 worked out at 760 nM. The inhibition at 16 µM in test [2] (setting [5]) was below 40%.
On to `CCOC(=O)N(O)C(C)c1ccc2c(c1)Cc1ccccc1-2` (stereo not drawn) [Example 12, N-Hydroxy-alpha-methyl-9H-fluorene-2-methanamine carbamic acid, ethyl ester], for which the inhibition at 16 µM in test [1] (setting [3]) stood at 95%; in test [2] (setting [4]) it was 79%.
Consider `CC(C)C(=O)N(O)C(C)c1ccc2c(c1)Cc1ccccc1-2` (stereo not drawn) [Example 13], for which the values for the inhibition at 16 µM in test [1] (setting [3]) and in test [2] (setting [5]) were 90% and below 40%, respectively.
Turning to `CCNC(=S)N(O)C(C)c1ccc2c(c1)Cc1ccccc1-2` (stereo not drawn) [Example 14, N-(1-(9H-Fluoren-2-yl)ethyl)-N-hydroxy-N'-ethylthiourea], in test [1] (at 0.25 μM, RBL-1 cells), at 0.25 µM the inhibition was 56%. Also, in test [2] (setting [5]), the inhibition at 16 µM is below 40%.
Turning to `CC(C)C(=O)N(O)Cc1ccc2c(c1)OCc1ccccc1C2=O` [Example 17, N[(6,11-Dihydro-11-oxodibenz[b,el]oxepin-3-yl)methyl]N-hydroxy-2-methylpropanamide], the inhibition at 16 µM in test [1] (setting [3]) turned out to be 100%. Further, the IC50 in test [2] (RBL-1 cells) was 5800 nM.
As for `CC(=O)N(O)Cc1ccc2c(c1)OCc1ccccc1C2=O` [Example 18, N-[(6,11-Dihydro-11-oxodibenz[b,el]oxepin-3-yl)methyl]-N-hydroxyacetamide], the IC50 in test [1] (RBL-1 cells) is 840 nM. Further, in test [2] (setting [6]), the inhibition at 16 µM was below 40%.
Regarding `CCOC(=O)C(=O)N(O)Cc1ccc2c(c1)OCc1ccccc1C2=O` [Example 19, Ethyl[[(6,11-Dihydro-11-oxodibenz[b,e]oxepin-3-yl)methyl]hydroxyamino]oxoacetate], the inhibition at 16 µM in test [1] (setting [3]) is 84%; in test [2] (setting [6]), below 40%.
Consider `CNC(=O)N(O)Cc1ccc2c(c1)OCc1ccccc1C2=O` [Example 20, N-[(6,11-Dihydro-11-oxodibenz[b,e]oxepin-3-yl)methyl]-N-hydroxy-N'-methylurea], for which the IC50 in test [1] (RBL-1 cells) was determined as 510 nM. Also, the inhibition at 16 µM in test [2] (setting [6]) is below 40%.
Consider `CC(=O)N(O)Cc1ccccc1Nc1cccc(C)c1C` [Example 47], for which the results for the IC50 in test [1] (RBL-1 cells) and in test [2] (RBL-1 cells) were 510 nM and 15000 nM, respectively.
In the case of `COc1ccc2c(c1)c(CN(O)C(C)=O)c(C)n2C(=O)c1ccc(Cl)cc1` [Example 63, N-[[1-(4-Chlorobenzoyl)-5-methoxy-2-methyl-1H-indole-3-yl]methyl]-N-hydroxyacetamide], the IC50 in test [2] (RBL-1 cells) turned out to be 15000 nM.
As for `COc1ccc2c(c1)c(CN(O)C(=O)CCC(=O)O)c(C)n2C(=O)c1ccc(Cl)cc1` [Example 66, 4-[[[1-(4-Chlorobenzoyl)-5-methoxy-2-methyl-1H-indol-3-yl]methyl]hydroxyamino]-4-oxo-butanoic acid], the inhibition at 16 µM in test [1] (RBL-1, Table 4, read-out: ARBL % inhibition (N @ 16)) is below 40%.
Consider `COC(=O)N(O)Cc1c(C)n(C(=O)c2ccc(Cl)cc2)c2ccc(OC)cc12` [Example 67, [[1-(4-Chlorobenzoyl)-5-methoxy-2-methyl-1H-indol-3-yl]methyl]hydroxycarbamic acid, methyl ester], for which, in test [2] (RBL-1 cells), the IC50 is 16000 nM.
As for `COc1ccc2c(c1)c(CN(O)C(N)=O)c(C)n2C(=O)c1ccc(Cl)cc1` [Example 68, N-(Aminocarbonyl)-1-(4-chlorobenzoyl)-N-hydroxy-5-methoxy-2-methyl-1H-indole-3-methanamine], the inhibition at 16 µM in test [1] (setting [3]) was determined as 98%.
In the case of `CNC(=O)N(O)Cc1c(C)n(C(=O)c2ccc(Cl)cc2)c2ccc(OC)cc12` [Example 69, 1-(4-Chlorobenzoyl)-N-hydroxy-5-methoxy-2-methyl-N-[(methylamino)carbonyl]-1H-indole-3-methanamine], the IC50 in test [1] (RBL-1 cells) came out at 2500 nM.
`CCOC(=O)NC(=O)N(O)Cc1c(C)n(C(=O)c2ccc(Cl)cc2)c2ccc(OC)cc12` [Example 72, [[[[1-(4-Chlorobenzoyl)-5-methoxy-2-methyl-1H-indol-3-yl]methyl]hydroxyamino]carbonyl]carbamic acid, ethyl ester]: in test [1] (setting [3]), the inhibition at 16 µM amounted to 98%.
Still for that read-out and setting: to `CCOC(=O)CNC(=O)N(O)Cc1c(C)n(C(=O)c2ccc(Cl)cc2)c2ccc(OC)cc12` [Example 73, N-[[[[1-(4-Chlorobenzoyl)-5-methoxy-2-methyl-1H-indol-3-yl]methyl]hydroxyamino]carbonyl]glycine, ethyl ester] belongs 100%.
